From patent publication US20250163122A1, “COMPOSITIONS AND METHODS FOR TREATING AIRWAY MUCUS DYSFUNCTION” (BOARD OF REGENTS, THE UNIVERSITY OF TEXAS SYSTEM, priority 2022, published 2025)
Where a SMILES comes first, the peptide text is derived from it. Bridges are numbered along the chain shown (N, C = ends). [ ]: non-standard residue; d: D form. S5 = C=CCCC[C@](C)(N)C(=O)O

System: neuronal SNAREs and Syt1
Test: Single vesicle content mixing assay, neuronal SNAREs and Syt1
Format: biochemical
Details: 10 μM peptide, raw count; for Ca2+ triggered fusion events: 500 μM Ca2+
From the text: For single vesicle content mixing assay, the lipid composition of the SV, SG, VAMP2, or VAMP8 vesicles was phosphatidylcholine (PC) (48%), phosphatidylethanolamine (PE) (20%), phosphatidylserine (PS) (12%), and cholesterol (20%); for both the neuronal and airway PM vesicles the lipid composition was Brain Total Lipid Extract supplemented 3.5 mol % PIP2, and 0.1 mol % biotinylated phosphatidylethanolamine (PE).
The reconstitution method for neuronal PM and SV vesicles was described in detail previously (see Lai et al., 2017; Kyoung et al., 2011; and Lai et al., 2014). The same methods were used for airway PM, SG, VAMP2, and VAMP8 vesicles. Dried lipid films were dissolved in 110 mM OG buffer containing purified proteins at protein-to-lipid ratios of 1:200 for VAMP2 and Stx1A for SV and neuronal PM vesicles, respectively (or 1:200 for VAMP8 and Stx3 for SG and airway PM vesicles, respectively), and 1:800 for Syt1 for SV vesicles (or 1:1200 for Syt2 for SG vesicles).
A 3-5 fold excess of SNAP-25A or SNAP-23 (with respect to Stx1A or Stx3) and 3.5 mol % PIP2 were added to the protein-lipid mixture for neuronal or airway PM vesicles. […] For the preparation of SV, SG, VAMP2, or VAMP8 vesicles for single vesicle content mixing assay, 50 mM sulforhodamine B (Thermo Fisher Scientific) was added to the protein-lipid mixture. The vesicles subsequently formed during size exclusion chromatography using a Sepharose CL-4B column, packed under near constant pressure by gravity with a peristaltic pump (GE Healthcare) in a 5.5 ml column with a ˜5 ml bed volume that was equilibrated with buffer V (20 mM HEPES, pH 7.4, 90 mM NaCl) supplemented with 20 μM EGTA and 0.1% 2-mercaptoethanol. The eluent was subjected to dialysis into 21 of detergent-free buffer V supplemented with 20 μM EGTA, 0.1% 2-mercaptoethanol, 5 g of Bio-beads SM2 (Bio-Rad) and 0.8 g/L Chelex 100 resin (Bio-Rad). After 4 hours, the buffer was exchanged with 21 of fresh buffer V supplemented with 20 μM EGTA, 0.1% 2-mercaptoethanol and Bio-beads, and the dialysis continued for another 12 h (overnight). […] For ensemble lipid mixing assay, the reconstitution method is the same as that for the single vesicle content mixing assay, except that 50 mM sulforhodamine B was omitted for all the steps.
Single vesicle content mixing experiments. All single vesicle fusion and single molecule experiments were performed on a prism-type total internal reflection fluorescence (TIRF) microscope using 532 nm (green) laser (CrystaLaser) excitation. Two observation channels were created by a 640 nm single-edge dichroic beamsplitter (FF640-FDi01-25x36, Shemrock): one channel was used for the fluorescence emission intensity of the content dyes and the other channel for that of the Cy5 dye that are part of the injected Ca^2+-solution. The two channels were recorded on two adjacent rectangular areas (45×90 m^2) of a charge-coupled device (CCD) camera (iXon+DV 897E, Andor Technology). The imaging data were recorded with the smCamera software developed by Taekjip Ha, Johns Hopkins University, Baltimore.
Flow chambers were assembled by creating a “sandwich” consisting of a quartz slide and a glass coverslip that were both coated with polyethylene glycol (PEG) molecules consisting 0.1% (w/v) biotinylated-PEG except when stated otherwise, and using double-sided tape to create up to five flow-chambers.
The single vesicle content mixing assay described in Lai et al. (2014) was used to monitor vesicle-vesicle association, Ca^2+-independent, and Ca^2+-triggered fusion. The surface of the quartz slides was passivated by coating the surface with polyethylene glycol (PEG) molecules which alleviated non-specific binding of vesicles. The same protocol and quality controls (surface coverage and non-specific binding) were used as described previously (Kyoung et al., 2011; Kyoung et al., 2012) except that PEG-SVA (Laysan Bio) instead of mPEG-SCM (Laysan Bio) was used since it has a longer half-life. […]

Row | Compound | Ca2+ triggered fusion events | Ca2+ independent fusion events
1 | CC[C@H](C)[C@H](NC(=O)[C@]1(C)CCCC=CCCC[C@](C)(NC(=O)[C@H](CCC(=O)O)NC(=O)[C@H](CCC(=O)O)NC(C)=O)C(=O)N[C@@H](CCCCN)C(=O)N[C@@H](CC(=O)O)C(=O)N[C@@H](C)C(=O)N1)C(=O)N[C@@H](CCCNC(=N)N)C(=O)N[C@@]1(C)CCCC=CCCC[C@@](C)(C(=O)N[C@@H](CC(=O)O)C(=O)N[C@@H](CCC(=O)O)C(=O)N[C@@H](CCC(N)=O)C(=O)N[C@@H](CS)C(N)=O)NC(=O)[C@H](CCSC)NC(=O)[C@H](C(C)C)NC(=O)[C@H](CC(C)C)NC1=O [SP9, Ac-EE(S5)KDA(S5)IR(S5)LVM(S5)DEQC-amide] (Ac-EE[S5]KDA[S5]IR[S5]LVM[S5]DEQC-NH2; staple 3-7, 10-14) | 272 | 165
2 | Ac-SKD(S5)GIR(S5)LV(S5)LDE(S5)GEQL-amide (Ac-SKD[S5]GIR[S5]LV[S5]LDE[S5]GEQL-NH2; staple 11-15, 4-8; SMILES CC[C@H](C)[C@@H]1NC(=O)CNC(=O)[C@@](C)(NC(=O)[C@H](CC(=O)O)NC(=O)[C@H](CCCCN)NC(=O)[C@H](CO)NC(C)=O)CCCC=CCCC[C@@](C)(C(=O)N[C@@H](CC(C)C)C(=O)N[C@H](C(=O)N[C@@]2(C)CCCC=CCCC[C@@](C)(C(=O)NCC(=O)N[C@@H](CCC(=O)O)C(=O)N[C@@H](CCC(N)=O)C(=O)N[C@@H](CC(C)C)C(N)=O)NC(=O)[C@H](CCC(=O)O)NC(=O)[C@H](CC(=O)O)NC(=O)[C@H](CC(C)C)NC2=O)C(C)C)NC(=O)[C@H](CCCNC(=N)N)NC1=O) [SP10] | 495 | 263
3 | Ac-SKD(S5)GIR(S5)LVMLDE(S5)GEQ(S5)DR-amide (Ac-SKD[S5]GIR[S5]LVMLDE[S5]GEQ[S5]DR-NH2; staple 15-19, 4-8; SMILES CC[C@H](C)[C@@H]1NC(=O)CNC(=O)[C@@](C)(NC(=O)[C@H](CC(=O)O)NC(=O)[C@H](CCCCN)NC(=O)[C@H](CO)NC(C)=O)CCCC=CCCC[C@@](C)(C(=O)N[C@@H](CC(C)C)C(=O)N[C@H](C(=O)N[C@@H](CCSC)C(=O)N[C@@H](CC(C)C)C(=O)N[C@@H](CC(=O)O)C(=O)N[C@@H](CCC(=O)O)C(=O)N[C@@]2(C)CCCC=CCCC[C@@](C)(C(=O)N[C@@H](CC(=O)O)C(=O)N[C@@H](CCCNC(=N)N)C(N)=O)NC(=O)[C@H](CCC(N)=O)NC(=O)[C@H](CCC(=O)O)NC(=O)CNC2=O)C(C)C)NC(=O)[C@H](CCCNC(=N)N)NC1=O) [SP1] | 210 | 235
4 | Ac-SKDA(S5)IRT(S5)VM(S5)DEQ(S5)EQL-amide (Ac-SKDA[S5]IRT[S5]VM[S5]DEQ[S5]EQL-NH2; staple 12-16, 5-9; SMILES CC[C@H](C)[C@@H]1NC(=O)[C@@](C)(NC(=O)[C@H](C)NC(=O)[C@H](CC(=O)O)NC(=O)[C@H](CCCCN)NC(=O)[C@H](CO)NC(C)=O)CCCC=CCCC[C@@](C)(C(=O)N[C@H](C(=O)N[C@@H](CCSC)C(=O)N[C@@]2(C)CCCC=CCCC[C@@](C)(C(=O)N[C@@H](CCC(=O)O)C(=O)N[C@@H](CCC(N)=O)C(=O)N[C@@H](CC(C)C)C(N)=O)NC(=O)[C@H](CCC(N)=O)NC(=O)[C@H](CCC(=O)O)NC(=O)[C@H](CC(=O)O)NC2=O)C(C)C)NC(=O)[C@H]([C@@H](C)O)NC(=O)[C@H](CCCNC(=N)N)NC1=O) [SP4] | 210 | 261
5 | EESKDAGIRTLVMLDEQGEQLD [Peptide P0, non-stapled SNAP-25A fragment used as a control, reference compound] | 591 | 493
